Measurements: US6632823B1, “Substituted pyridine compounds useful as modulators of acetylcholine receptors” (Merck & Co., Inc., priority 1997, dated 2003)
Counter-ions that a name gives are not always drawn.

`CN1C2CCC1CC(SCc1ccccn1)C2` (stereo not drawn) (as salt: hydrochloride) and `CN1C2CCC1CC(Sc1ccccn1)C2` (stereo not drawn) (as salt: hydrochloride) [3-[Endo-(2-Pyridine)thio]-8-methyl-8-azabbicyclo[3.2.1]octane] cannot be ordered by melting point: 204 to 206 °C for the first, 201 to 205 °C for the second.

For `CN1CCCC1CCSc1ccncc1` (stereo not drawn) (as salt: hydrochloride) [A = C, B = N, R1, R2, R4, R5 = H, D = absent, E = —S—, G = —] [2-[2-(4-Pyridine)thioethyl]-1-methylpyrrolidine], the melting point was 186.5 to 187.5 °C.
